According to PMC8840560, “Naphthoquine: A Potent Broad-Spectrum Anti-Coronavirus Drug In Vitro” (Molecules, 2022):
Where two headings read alike, the source gives them in different places.

What was measured:
SARS-CoV-2 [1] = test system: SARS-CoV-2; set-up: method as in PMID 32194981, PMID 33995308; details: in vitro; read-out: IC50 anti-SARS-CoV-2 in vitro; cited from earlier work
HCoV-OC43 = experiment: CPE inhibition assay, HCoV-OC43-infected H460 cells; assay type: cell-based; details: for IC50: Betacoronavirus 1, NCI-H460, HCoV-OC43 (100 TCID50) in H460 cells, CPE, about 72 h, Reed-Muench
in vitro [2] = details: human, Huh7 cells
HCoV-229E = experiment: CPE inhibition assay, HCoV-229E-infected Huh7 cells; assay type: cell-based; details: for IC50: Human coronavirus 229E
in vitro [3] = details: human, H460 cells
SARS-CoV-2 [4] = experiment: Anti-SARS-CoV-2 activity in Vero cells by qRT-PCR of viral RNA in supernatant; assay type: cell-based; details: Severe acute respiratory syndrome coronavirus 2; SARS-CoV-2 (100 TCID50) in Vero cells, qRT-PCR of supernatant RNA at 48 h, 12 h pretreatment
SARS-CoV-2 [5] = experiment: Time-of-addition assay against SARS-CoV-2 in Vero cells; assay type: cell-based; details: 10 µM, qRT-PCR at 48 h

CCN(CCO)CCCC(C)Nc1ccnc2cc(Cl)ccc12 (stereo not shown) [HCQ, hydroxychloroquine]
IC50 (SARS-CoV-2 [1]): < 10 µM

NC(=O)c1ncn([C@@H]2O[C@H](CO)[C@@H](O)[C@H]2O)n1 [RBV, Ribavirin]
SI (HCoV-OC43): 15.34
IC50 (HCoV-OC43): 20.7 ± 7.86 µM
CC50 at 2 days (in vitro [2]): 409 µM
SI (HCoV-229E): 26.54
IC50 (HCoV-229E; Huh-7, HCoV-229E (100 TCID50) in Huh7 cells, CPE, about 48 h, Reed-Muench, read-out: IC50): 15.4 ± 5.57 µM
CC50 at 2 days (in vitro [3]): 318 µM

CCN(CC)CCCC(C)Nc1ccnc2cc(Cl)ccc12 (stereo not shown) [CQ, Chloroquine phosphate]
IC50 (SARS-CoV-2 [4]): 5.85 ± 0.97 µM
inhibition of SARS-CoV-2 infection at all time points (full-time, first 3 h, last 46 h) (SARS-CoV-2 [5]): effectively inhibit SARS-CoV-2 infection at all time points
IC50 (HCoV-OC43): 3.16 ± 0.6 µM
IC50 (HCoV-229E; Huh-7, 48 h): 8.74 ± 7.27 µM
IC50 (SARS-CoV-2 [1]): < 10 µM

OC(c1cc(C(F)(F)F)nc2c(C(F)(F)F)cccc12)C1CCCCN1 (stereo not shown) [mefloquine]
IC50 (SARS-CoV-2 [1]): < 10 µM
